Laboratory results: publication PMC7413516, “Antidepressant-like activity and safety profile evaluation of 1H-imidazo[2,1-f]purine-2,4(3H,8H)-dione derivatives as 5-HT1A receptor partial agonists” (PLoS ONE, 2020)
Where “and” joins values, the source holds several entries; their conditions need not be identical. Identical values can stand only once.

How the values were obtained:
[1] = test system: PDE10A; parameters: method as in PMID 27353547; conditions: in vitro, bioluminescent detection system; ref [8]; cited from earlier work
[2] = target: T1, histaminic H1 receptor (H1R) (Cavia porcellus, UniProt P31389); test: Smooth muscle relaxant assay: histamine-induced contraction of isolated guinea pig ileum; conditions: isolated guinea pig small intestine, histamine 2 μM
T1 construct: from tissue; host or cells: isolated guinea pig ileum
Experimental: The experiment was carried out according to the method described previously. Male guinea pigs were sacrificed by cervical dislocation. The ileum was rapidly removed, rinsed, and cut into segments of 1.5–2.0 cm length. The tissues were mounted on a jacketed 20 mL organ bath (Tissue Organ Bath System; 750 TOBS, DMT, Denmark) filled with Krebs’s solution (NaCl 120 mM, KCl 5.6 mM, MgCl2 2.2 mM, CaCl2 2.4 mM, NaHCO3 19 mM, glucose 10 mM). The bath was aerated with 95 % O2/5 % CO2 and heated at 37°C. During the 60-min incubation period, the organ was rinsed 4 times with fresh Krebs’s buffer, and the tissues were also pre-stimulated by 60 mM KCl solution. The submaximal contraction induced by histamine (Sigma Aldrich) (2 μM) and carbachol (Sigma Aldrich) (100 μM) was evaluated in the presence and absence of the tested compounds. Amplitudes of contraction values were measured in 4 independent experiments.

[3] = test system: adrenergic α1 receptors (α1R); test: Pressor response to methoxamine in anesthetized normotensive rats (adrenolytic activity); assay type: in vivo, Wistar rats; conditions: 10 mg/kg
Experimental: In a separate series of experiments on anesthetized normotensive rats, the effect of studied compounds on the pressor response to methoxamine (Sigma Aldrich) (150 μg/kg) was investigated. Pressor responses to methoxamine injected intravenously were measured before and 30 min after the administration of the tested compound. The amplitudes of the pressure values were measured in 4 independent experiments.

[4] = test system: 5-HT1AR; parameters: method as in PMID 27353547; conditions: CHO-K1 cells, Ca2+ mobilisation; ref [8]; read-out: Kb, 5-HT1AR antagonist; cited from earlier work
[5] = test system: PDE4B; parameters: method as in PMID 27353547; conditions: in vitro, bioluminescent detection system; ref [8]; cited from earlier work
[6] = Body weight measurement in the 17-day experiment; assay type: in vivo, Swiss albino mice; conditions: for body weight Mean / body weight: mouse, 1.25 mg/kg
Experimental: (§1) The Swiss albino mice were used in the experiment. AZ-853 and AZ-861 were injected once daily for 16 consecutive days. On the 1st and 15th day the administration of the compounds, 18-h spontaneous animal activity was registered (see below). FST, as described earlier, was performed on the 14th day just before the next treatment. To ensure that the effects observed in FST are not the result of increased motility of animals, on the 13th day, just before the next administration, the locomotor activity was measured as described earlier, from 2 to 6 min after test start, i.e. in the period identical to the duration of FST. Blood and organ collection was performed on the 17th day at 24 h after the last dose and fasting.
(§2) The body weight was measured daily immediately prior to administration of the drugs. On the 17th day, the blood was collected from the Swiss albino mice sacrificed by decapitation 20 min after i.p. administration of heparin (2500 units/mouse) and then centrifuged at 600 × g (15 min, 4°C) to separate plasma. The liver, heart, and kidney were also collected and weighed.

[7] = Plasma glucose, triglyceride and cholesterol levels after repeated administration; assay type: in vivo, Swiss albino mice; conditions: mice, AZ-853 0.625, AZ-861 1.25 mg/kg b.w./day
Experimental: as §1
Blood samples were collected from the Swiss albino mice 24 h after the last administration of the tested compounds or vehicle. To determine glucose, cholesterol and triglyceride levels in the plasma, standard enzymatic spectrophotometric tests (Biomaxima S.A. Lublin, Poland) were used. In the presence of appropriate enzyme, the substrate was converted to a colored compound. Absorbance was measured at a wavelength of 500 nm. To determine alanine aminotransferase (ALAT) or γ-glutamyl transpeptidase (γ-GTP) activities in the plasma, the standard enzymatic spectrophotometric test (Biomaxima S.A.) was used. Absorbance was measured at 340 nm (ALAT) or 405 nm (γ-GTP).

[8] = target: serotonergic 5-HT1A receptor (5-HT1AR); parameters: method as in PMID 27353547; conditions: ref [8]; cited from earlier work
[9] = Liver, kidney and heart weight after repeated administration; assay type: in vivo, Swiss albino mice; conditions: mice, AZ-853 0.625 mg/kg, AZ-861 1.25 mg/kg
Experimental: as §1, §2

[10] = target: serotonergic 5-HT7 receptor (5-HT7R); parameters: method as in PMID 27353547; conditions: ref [8]; cited from earlier work
[11] = target: T2, human 5-HT1AR (Homo sapiens, UniProt P08908); test: β-Arrestin recruitment (Tango LiveBLAzer, HTR1A-bla U2OS cells)
T2 sequence (P08908 1-422): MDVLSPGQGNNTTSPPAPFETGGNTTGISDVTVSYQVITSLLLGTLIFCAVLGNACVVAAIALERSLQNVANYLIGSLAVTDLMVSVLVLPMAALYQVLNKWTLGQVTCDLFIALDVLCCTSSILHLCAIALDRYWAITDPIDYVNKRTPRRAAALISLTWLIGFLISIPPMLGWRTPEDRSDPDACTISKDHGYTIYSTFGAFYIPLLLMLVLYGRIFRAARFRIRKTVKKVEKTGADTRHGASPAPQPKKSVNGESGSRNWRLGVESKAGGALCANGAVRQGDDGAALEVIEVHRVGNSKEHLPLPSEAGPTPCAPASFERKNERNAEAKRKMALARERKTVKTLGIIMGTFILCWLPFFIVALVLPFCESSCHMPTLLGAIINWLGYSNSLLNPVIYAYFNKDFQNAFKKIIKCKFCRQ
Experimental: Cells were cultured according to manufacturer’s instruction. […] This parental cell line stably expresses a beta-arrestin/TEV protease fusion protein and the beta-lactamase reporter gene under the control of a UAS response element. The Tango™ HTR1A-bla U2OS cells have been functionally validated for a response to 5-CT. This cell line tested negative for mycoplasma.
The HTR1A-bla U2OS receptor cells containing the human 5-HT1AR linked to a TEV protease site and a Gal4-VP16 transcription factor were tested for recruitment of β-arrestin. […] The recruitment of β-arrestin were tested using the Tango LiveBLAzer assay kit according to the manufacturer’s instruction (Life Technologies). The assay plate was measured in FLUOstar Optima, a multifunction plate reader (BMG Lab Tech).

T1 sequence (P31389 whole entry): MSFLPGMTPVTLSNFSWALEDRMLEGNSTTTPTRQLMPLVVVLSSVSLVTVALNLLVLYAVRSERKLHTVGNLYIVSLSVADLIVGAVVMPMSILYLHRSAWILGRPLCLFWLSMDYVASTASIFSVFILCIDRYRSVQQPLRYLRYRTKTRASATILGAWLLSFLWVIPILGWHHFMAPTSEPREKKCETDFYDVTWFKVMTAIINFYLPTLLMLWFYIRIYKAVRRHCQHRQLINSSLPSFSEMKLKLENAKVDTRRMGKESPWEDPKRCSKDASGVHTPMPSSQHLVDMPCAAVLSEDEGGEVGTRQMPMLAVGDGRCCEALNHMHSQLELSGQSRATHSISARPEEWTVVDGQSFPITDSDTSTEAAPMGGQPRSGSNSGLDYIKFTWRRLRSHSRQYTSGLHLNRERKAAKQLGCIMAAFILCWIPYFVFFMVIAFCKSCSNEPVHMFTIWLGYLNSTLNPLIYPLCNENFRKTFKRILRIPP

inhibition at 1 µM [2]: 99.8%
plasma level of total cholesterol vs. control [7]: increased significantly
plasma level of triglycerides vs. control [7]: increased significantly
EC50 [11]: 0.372 nM
Emax ([11]; U2OS, read-out: Emax (%) ± SEM, agonist mode): 95 ± 1.7%
increased potency as compared to 5-HT ([11]; β-arrestin recruitment): 1000 fold
SMILES: Cn1c(=O)c2c(nc3n(CCCCN4CCN(c5cccc(C(F)(F)F)c5)CC4)ccn23)n(C)c1=O [AZ-861, 1,3-dimethyl-8-(4-(4-(3-(trifluoromethyl)phenyl)piperazin-1-yl)butyl)-1H-imidazo[2,1-f]purine-2,4(3H,8H)-dione]
PDE10A inhibitory activity [1]: did not induce PDE4B and PDE10A inhibitory activity
reversal of the effect of methoxamine [3]: approximately 40%
mean reduction of blood pressure vs. methoxamine alone ([3]; 30 min prior to methoxamine 150 μg/kg): 40.45 mmHg
Kb [4]: 1.4 nM
PDE4B inhibitory activity [5]: did not induce PDE4B and PDE10A inhibitory activity
effect on body weight ([6]; mice, repeated i.p. once daily, AZ-853 0.625 mg/kg (from 10th day), AZ-861 1.25 mg/kg (2nd, 3rd, 4th day)): slight and significant decrease in body weight
body weight Mean ([6]; day 1, group mean): 23.19 g
body weight ([6]; day 1, individual mouse): 20.6 g and 21.8 g and 22.1 g and 24.2 g and 24.0 g and 23.4 g and 23.1 g and 24.9 g and 26.3 g and 21.5 g
body weight Mean ([6]; day 2, group mean): 23.05 g
body weight ([6]; day 2, individual mouse): 20.7 g and 22.8 g and 22.6 g and 24.2 g and 23.5 g (2×) and 23.1 g and 23.6 g and 24.9 g and 21.6 g
body weight Mean ([6]; day 3, group mean): 23.20 g
body weight ([6]; day 3, individual mouse): 21.0 g (2×) and 22.0 g and 23.0 g and 24.0 g (5×) and 25.0 g
body weight Mean ([6]; day 4, group mean): 23.30 g
body weight ([6]; day 4, individual mouse): 22.0 g (2×) and 23.0 g (3×) and 21.0 g and 24.0 g (2×) and 25.0 g and 26.0 g
body weight Mean ([6]; day 5, group mean): 23.70 g
body weight ([6]; day 5, individual mouse): 21.6 g and 22.5 g and 22.7 g and 24.5 g and 24.0 g and 23.5 g and 24.9 g and 26.3 g and 25.9 g and 21.1 g
body weight Mean ([6]; day 6, group mean): 23.76 g
body weight ([6]; day 6, individual mouse): 21.6 g (2×) and 22.1 g and 22.6 g and 25.1 g and 24.3 g and 23.0 g and 25.3 g and 25.6 g and 26.4 g
body weight Mean ([6]; day 7, group mean): 23.90 g
body weight ([6]; day 7, individual mouse): 22.0 g (3×) and 23.0 g and 25.0 g (2×) and 24.0 g (2×) and 26.0 g (2×)
body weight Mean ([6]; day 8, group mean): 24.10 g
body weight ([6]; day 8, individual mouse): 23.0 g (3×) and 25.0 g (2×) and 24.0 g (2×) and 26.0 g (2×) and 22.0 g
body weight Mean ([6]; day 9, group mean): 24.40 g
body weight ([6]; day 9, individual mouse): 23.0 g (4×) and 26.0 g (3×) and 25.0 g (2×) and 24.0 g
body weight Mean ([6]; day 10, group mean): 24.31 g
body weight ([6]; day 10, individual mouse): 22.5 g and 23.1 g (2×) and 25.2 g and 24.7 g and 24.0 g and 25.0 g and 26.6 g and 26.8 g and 22.1 g
body weight Mean ([6]; day 11, group mean): 24.47 g
body weight Mean ([6]; day 12, group mean): 24.59 g
body weight Mean ([6]; day 13, group mean): 24.59 g
body weight Mean ([6]; day 14, group mean): 24.73 g
body weight Mean ([6]; day 15, group mean): 25.31 g
plasma glucose level vs. control [7]: did not influence the plasma glucose level
Ki [8]: 0.2 nM
effect on liver, kidney and heart weight (% of total body weight) [9]: neither AZ-853 (0.625 mg/kg) nor AZ-861 (1.25 mg/kg) influenced
Ki [10]: 136 nM
